Paper PMC7662849, “Mimicking the Nucleosomal Context in Peptide-Based Binders of a H3K36me Reader Increases Binding Affinity While Altering the Binding Mode” (Molecules, 2020)
pKd: −log10 of the molar value. Where two headings read alike, the source gives them in different places. Positions of bridges follow the written chain, without caps; N, C: chain ends. Non-standard residues stand in square brackets, D forms with d. Residues, ends and D or L forms follow the SMILES beside them. Chains are numbered I, II in the order given. Lys(Me3) = C[N+](C)(C)CCCC[C@H](N)C(=O)O

Target: T1, PSIP1^PWWP (AA 2-100, Uniprot-ID: O75475) (Homo sapiens, UniProt O75475)
T1 construct: PSIP1^PWWP (AA 2-100, Uniprot-ID: O75475); GST (cleaved yes); made in house; host or cells: E. coli BL21 Rosetta2 (DE3)
T1 sequence (O75475 2-100): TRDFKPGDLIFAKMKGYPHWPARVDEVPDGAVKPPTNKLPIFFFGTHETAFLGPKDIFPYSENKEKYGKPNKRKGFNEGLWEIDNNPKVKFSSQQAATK
Test: NMR titration (15N-HSQC chemical shift perturbation) of peptides binding to PSIP1 PWWP domain
Experimental: Cells were grown to an OD of 0.6 and induced with 500 μM IPTG. The protein was expressed for 3 h at 37 °C. […] The GST-fusion protein was eluted using elution buffer (50 mM KPi pH 7.0, 100 mM KCl, 50 mM reduced glutathione, 1 mM DTT, complete EDTA-free protease inhibitor (Roche)). Thrombin cleavage of the GST-tag was carried out for 3 h at 37 °C after adding 10U of thrombin to the combined eluted fractions, then quenched by addition of 1 mM PMSF and incubation for 15 min at 37 °C. […] The PWWP-containing fractions were then combined and dialyzed to NMR buffer (20 mM NaPi (pH = 7.0), 150 mM NaCl, cOmplete protease inhibitor, 10% (v/v) D2O).
All peptides were dissolved in NMR buffer (20 mM NaPi (pH = 7.0), 150 mM NaCl, cOmplete protease inhibitor, 10% (v/v) D2O). The pH for all peptide stocks was adjusted to 7.0 using NH4OH. Determination of peptide stock concentrations was done using 1D NMR spectra with TSP as reference compound. […] The Val signal was verified by 2D NMR spectra (TOCSY, ^13C-HSQC).
All NMR experiments were carried out at 298 K on a Bruker Avance spectrometer operating at 750 MHz ^1H Larmor frequency with room-temperature probe. Processing was done using the Bruker’s TopSpin. Spectra were analyzed using Sparky (Goddard and Kneller, UCSF).
Titration data were fitted using MatLAB scripts (available upon request) using the fast-exchange assumption [50]. […] Profiles were selected either form the ^1H or ^15N dimension. A 1:1 binding model was assumed. […] The degrees of freedom are equal to total number of points NM compensated for the number of global variables (KD), the M offset-variables and M chemical shift differences. To obtain the 95% confidence limits in the KD, a one-dimensional grid search was performed either systematically increasing or decreasing the KD until the reduced χ^2 exceeded the 95% critical value according to an F-test.
Analysis of the bound-state chemical shifts was based on selected residues K14 (^1H/^15N), M15 (^1H), W21 (^1H), F44 (^15N) T47 (^1H/^15N), H48 (^1H), T50 (^1H/^15N) and A51 (^1H/^15N) due to their significant shift in all experiments.

pKd (same titration and fit, limits from grid search, F-test, read-out: KD, 95% probability limits) | pKd (~300 µM 15N-PSIP1^PWWP, 20 mM NaPi pH 7.0, 150 mM NaCl, 298 K, 1:1 binding model, read-out: KD (global fit of NMR-derived binding curves)) | pKd (~300 µM 15N-PSIP1^PWWP, 20 mM NaPi pH 7.0, 150 mM NaCl, 10% D2O, 298 K, 1:1 binding model, fast exchange, global fit of all residues with significant CSP, read-out: KD, best-fit value (global fit of NMR titration data)) | SMILES
3.15 to 3.72 | 3.44 | – | CC(=O)N[C@@H](CO)C(=O)N[C@@H](C)C(=O)N1CCC[C@H]1C(=O)N[C@@H](C)C(=O)N[C@H](C(=O)NCC(=O)NCC(=O)N[C@H](C(=O)N[C@@H](CCCC[N+](C)(C)C)C(=O)NCC(=O)NCC(=O)NCCCC[C@H](NC(=O)CNC(=O)CNC(=O)[C@H](CCC(=O)O)NC(=O)[C@H](CCC(=O)O)NC(=O)[C@H](CCC(=O)O)NC(=O)[C@H](CCC(=O)O)NC(=O)[C@H](CCC(=O)O)NC(C)=O)C(=O)NCC(=O)NCC(=O)N[C@@H](CCC(=O)O)C(=O)N[C@@H](CCC(=O)O)C(=O)N[C@@H](CCC(=O)O)C(=O)N[C@@H](CCC(=O)O)C(=O)N[C@@H](CCC(=O)O)C(N)=O)C(C)C)[C@@H](C)O [H3^(E5)2] (I: Ac-EEEEEGGKGGEEEEE-NH2 / II: Ac-SAPATGGV[Lys(Me3)]GG; amide I:8-II:C; N-terminus and C-terminus assumed)
– | – | 2.76 | CC(=O)N[C@@H](CO)C(=O)N[C@@H](C)C(=O)N1CCC[C@H]1C(=O)N[C@@H](C)C(=O)N[C@H](C(=O)NCC(=O)NCC(=O)N[C@H](C(=O)N[C@@H](CCCC[N+](C)(C)C)C(=O)N[C@@H](CCCCN)C(=O)N1CCC[C@H]1C(=O)N[C@@H](CCC(=O)O)C(=O)N[C@@H](CCC(=O)O)C(=O)N[C@@H](CCC(=O)O)C(=O)N[C@@H](CCC(=O)O)C(=O)N[C@@H](CCC(=O)O)C(=O)N[C@@H](CCC(=O)O)C(N)=O)C(C)C)[C@@H](C)O [H3^PE6] (Ac-SAPATGGV[Lys(Me3)]KPEEEEEE-NH2)
